Reference: ChEMBL document CHEMBL1134037, “Novel inhibitors of Leishmanial dihydrofolate reductase” (Bioorg Med Chem Lett, 2001)

Experiments:
[1] = target: Bifunctional dihydrofolate reductase-thymidylate synthase (Leishmania major) (UniProt P07382); experiment: Percent inhibition of compound against recombinant Leishmanial major dihydrofolate reductase at a concentration of 100 uM
[2] = target: T1, Dihydrofolate reductase (Homo sapiens) (UniProt P00374); experiment: Percent inhibition of compound against recombinant human dihydrofolate reductase at a concentration of 100 uM
T1 sequence (whole entry): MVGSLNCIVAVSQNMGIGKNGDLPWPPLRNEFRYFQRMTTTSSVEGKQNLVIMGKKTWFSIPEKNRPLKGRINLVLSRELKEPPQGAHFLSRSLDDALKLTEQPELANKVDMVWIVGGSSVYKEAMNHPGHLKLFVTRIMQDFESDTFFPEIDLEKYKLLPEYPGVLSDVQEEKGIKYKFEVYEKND

[3] = (§1) Cytotoxicity of compound was determined against rat L-6 cells; type: functional, cell-based; details: L6
Trypanosoma brucei = experiment: In vitro inhibition of compound against Trypanosoma brucei was determined; type: functional, organism-based
Trypanosoma cruzi = experiment: In vitro inhibition of compound against Trypanosoma cruzi was determined; type: functional, organism-based
Leishmania donovani = experiment: In vitro inhibition of compound against Leishmania donovani was determined; type: functional, organism-based
[4] = target: T1, Dihydrofolate reductase (Homo sapiens); experiment: Percent inhibition of compound against recombinant human dihydrofolate reductase at a concentration of 50 uM
[5] = target: T1, Dihydrofolate reductase (Homo sapiens); experiment: Percent inhibition of compound against recombinant human dihydrofolate reductase at a concentration of 15 uM
[6] = as §1; type: functional

Chain of Bifunctional dihydrofolate reductase-thymidylate synthase (Leishmania major) (P07382 whole entry, looked up): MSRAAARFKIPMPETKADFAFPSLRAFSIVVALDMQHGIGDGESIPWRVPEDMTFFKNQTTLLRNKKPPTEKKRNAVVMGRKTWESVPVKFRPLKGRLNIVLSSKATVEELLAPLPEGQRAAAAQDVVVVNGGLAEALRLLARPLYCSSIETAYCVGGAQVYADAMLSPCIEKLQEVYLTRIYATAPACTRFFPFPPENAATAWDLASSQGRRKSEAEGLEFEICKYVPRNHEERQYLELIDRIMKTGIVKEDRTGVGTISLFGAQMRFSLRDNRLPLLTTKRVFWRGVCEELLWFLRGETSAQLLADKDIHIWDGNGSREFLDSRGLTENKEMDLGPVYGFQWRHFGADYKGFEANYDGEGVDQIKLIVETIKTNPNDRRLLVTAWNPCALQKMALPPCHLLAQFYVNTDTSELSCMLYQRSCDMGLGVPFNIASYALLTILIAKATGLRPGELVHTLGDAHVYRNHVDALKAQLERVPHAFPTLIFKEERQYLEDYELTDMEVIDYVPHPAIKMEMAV

SMILES	inhibition [1]	inhibition [2]	IC50 (Trypanosoma brucei)	IC50 (Trypanosoma cruzi)	IC50 (Leishmania donovani)	inhibition [4]	inhibition [5]	IC50 [3]	MIC [6]
CCn1ncc2c1n/c(=N\c1ccccc1)n1ccc3ccccc3c21	28%	10%	35 µM	60 µM	54 µM	–	–	> 265 µM	–
COC(=O)N[C@H](C(=O)OC)[C@H](O)[C@@H](C)c1c(C)nc2n(C)c3ncn(Cc4ccccc4)c3c(=O)n12	24%	16%	108 µM	53 µM	< 21 µM	–	–	181 µM	–

The next compounds have a lower IC50 (Trypanosoma brucei) than those just listed; values first:

inhibition [1]	inhibition [2]	IC50 (Trypanosoma brucei)	IC50 (Trypanosoma cruzi)	IC50 (Leishmania donovani)	inhibition [4]	inhibition [5]	SMILES	IC50 [3]	MIC [6]
50%	–	11 µM	35 µM	69 µM	37%	–	O=c1[nH]c(=O)n([C@H]2C[C@H](O)[C@@H](CO)O2)c2nc(-c3ccccc3)c(-c3ccccc3)nc12	208 µM	–
32%	–	16 µM	30 µM	56 µM	–	21%	COC(=O)/C(C#N)=C/c1ccc(/C=C/c2ccccn2)cc1	–	> 310 µM
50%	43%	15 µM	8.6 µM	47 µM	–	–	CCOC(=O)/C(C#N)=C/c1ccc(/C=C/c2ccccn2)cc1	> 296 µM	–
